Among the test systems are XF 498 CNS; RXF 393 renal; TK-10 renal; SK-MEL-28 melanoma; M19-MEL melanoma; M14 melanoma; MOLT-4 leukemia; CAKI-1 renal; SN12C renal; T-47D breast.
Holding throughout (experiment): inhibition of tumour cell growth, NCI panel, 48 h

Molecules are shown by their SMILES.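 96-well plates; 48 h exposure; 5 concentrations. Endpoints by linear interpolation between flanking doses. Not reached: highest tested concentration assigned. GI50: concentration for 50% inhibition of growth. TGI is the concentration that stops growth completely.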

For `CC1COS(=O)N1c1ccccc1` (stereo not given), the TGI in the assay with XF 498 CNS, in the assay on RXF 393 renal, in the assay with TK-10 renal, in the assay with SK-MEL-28 melanoma, in the assay on M19-MEL melanoma and in the assay with M14 melanoma was above 100 µM throughout. The compound also had a TGI in the assay with MOLT-4 leukemia above 100 µM.

For `O=C1c2ccccc2C(=O)N1C/C=N/NS(=O)(=O)c1cccc([N+](=O)[O-])c1`, the TGI in the assay on XF 498 CNS, in the assay with CAKI-1 renal, in the assay on RXF 393 renal, in the assay on TK-10 renal, with SN12C renal and in the assay with M19-MEL melanoma was above 100 µM each time. The TGI in the assay on M14 melanoma and with MOLT-4 leukemia was above 100 µM throughout.

For the compound `CC[O-].CC[O-].[O-]c1ccccc1C=NC12CC3CC(CC(C3)C1)C2.[O-]c1ccccc1C=NC12CC3CC(CC(C3)C1)C2.[Ti+4]`, the GI50 was above 100 µM in the assay on CAKI-1 renal; 53.9 µM in the assay on RXF 393 renal; above 100 µM in the assay on TK-10 renal; 86.4 µM in the assay with SN12C renal; above 100 µM with SK-MEL-28 melanoma; above 100 µM with M19-MEL melanoma. The GI50 with M14 melanoma and in the assay with MOLT-4 leukemia was above 100 µM in each case. Further, the TGI in the assay with CAKI-1 renal, in the assay on RXF 393 renal, with TK-10 renal, in the assay with SN12C renal, in the assay with SK-MEL-28 melanoma and with M19-MEL melanoma was above 100 µM in each case. For the same compound, the TGI with M14 melanoma and in the assay on MOLT-4 leukemia was above 100 µM each time.

For `[O-]c1ccccc1C=NCCN=Cc1ccccc1[O-].[O]=[U+2]=[O]`, the GI50 in the assay on CAKI-1 renal was above 46.7 µM; in the assay with RXF 393 renal, 24.1 µM; with TK-10 renal, 26.3 µM; in the assay on SN12C renal, 28.4 µM; in the assay with SK-MEL-28 melanoma, above 50.9 µM; in the assay with M19-MEL melanoma, 32.2 µM. Besides, the GI50 in the assay with M14 melanoma was 40.9 µM; in the assay with MOLT-4 leukemia, 53.7 µM. Also, the TGI with CAKI-1 renal was above 67.6 µM; with RXF 393 renal it was 48.5 µM; with TK-10 renal it was 53.1 µM; with SN12C renal, above 63.4 µM; in the assay with SK-MEL-28 melanoma, above 78.7 µM; in the assay on M19-MEL melanoma, above 66.3 µM. In addition, the TGI with M14 melanoma was above 85.8 µM; in the assay with MOLT-4 leukemia, above 100 µM.

On to `CC(C)OC(=O)Nc1c([N+](=O)[O-])cc(C(F)(F)F)cc1[N+](=O)[O-]`, for which the TGI is above 55.7 µM with XF 498 CNS; above 100 µM in the assay on CAKI-1 renal; 62.3 µM in the assay on RXF 393 renal; above 100 µM with TK-10 renal; above 100 µM in the assay with SN12C renal; above 100 µM in the assay on SK-MEL-28 melanoma. In addition, the TGI in the assay with T-47D breast was above 100 µM; with M14 melanoma it was above 100 µM; in the assay with MOLT-4 leukemia, above 46.4 µM.

Consider `Cc1cccc(-c2nc(=S)[nH][nH]2)c1`, for which the TGI in the assay on XF 498 CNS, in the assay with CAKI-1 renal, with TK-10 renal, with SN12C renal, in the assay on SK-MEL-28 melanoma and in the assay on M19-MEL melanoma was above 100 µM each time. The TGI in the assay on M14 melanoma and in the assay on MOLT-4 leukemia was above 100 µM in each case.

As for `O=[N+]([O-])c1ccc(Cl)c(C2CC(c3cccc4ccccc34)=Nc3ccccc3S2=O)c1` (stereo not given), the TGI was above 69.8 µM in the assay on CAKI-1 renal; 21.1 µM with RXF 393 renal; 98.2 µM with TK-10 renal; above 60.4 µM in the assay on SN12C renal; 42.8 µM with SK-MEL-28 melanoma; above 62.7 µM in the assay with M19-MEL melanoma. For the same compound, the values for the TGI in the assay with M14 melanoma and with MOLT-4 leukemia were 59.7 µM and 62.8 µM, respectively.

Regarding `O=NN(CC1(O)OCC(O)C(O)C1O)C(Cc1c[nH]c2ccccc12)C(=O)O` (stereo not given), the TGI in the assay with XF 498 CNS, in the assay with RXF 393 renal, in the assay on TK-10 renal, in the assay with SK-MEL-28 melanoma, in the assay on M19-MEL melanoma and in the assay with M14 melanoma was above 100 µM throughout. The compound also showed a TGI in the assay with MOLT-4 leukemia above 100 µM.

As to `Cc1cc(C)c2c(c1)CSCc1cc(C)cc(C)c1-2`, the TGI is 76.8 µM with CAKI-1 renal; 65.3 µM in the assay on RXF 393 renal; above 100 µM in the assay on TK-10 renal; above 100 µM in the assay on SN12C renal; above 100 µM with SK-MEL-28 melanoma; 69.2 µM in the assay with M19-MEL melanoma. Moreover, the figures for the TGI in the assay with M14 melanoma and in the assay on MOLT-4 leukemia were 91.8 µM and 41.4 µM, respectively.

As to `Cc1cc(NC(=O)NCCCOc2ccc(N3C(N)=NC(N)=NC3(C)C)cc2Cl)ccc1S(=O)(=O)F`, the GI50 in the assay on CAKI-1 renal was above 63.7 µM; in the assay on RXF 393 renal it was 13.5 µM; in the assay on TK-10 renal it was 3.11 µM; in the assay with SN12C renal, 0.558 µM; in the assay on SK-MEL-28 melanoma, 1.93 µM; in the assay on T-47D breast, 4.82 µM. Besides, the GI50 was 2.42 µM in the assay on M14 melanoma and 1.14 µM in the assay on MOLT-4 leukemia. The TGI was above 100 µM in the assay with CAKI-1 renal; above 100 µM in the assay with RXF 393 renal; above 100 µM with TK-10 renal; above 100 µM with SN12C renal; 28.5 µM with SK-MEL-28 melanoma; 61.9 µM in the assay on T-47D breast. For the same compound, the TGI in the assay with M14 melanoma was above 100 µM; in the assay on MOLT-4 leukemia, above 96.1 µM.

In the case of `CCOc1ccc2c(c1)[n+]([O-])c(C(N)=O)c(N)[n+]2[O-]`, the TGI in the assay on XF 498 CNS, with CAKI-1 renal, with RXF 393 renal, with SN12C renal, with SK-MEL-28 melanoma and in the assay on M19-MEL melanoma was above 100 µM each time. In addition, the TGI in the assay with M14 melanoma and in the assay with MOLT-4 leukemia was above 100 µM each time.

Turning to `CC(C)(C)CNCCO`, the TGI with CAKI-1 renal, in the assay on RXF 393 renal, in the assay on TK-10 renal, in the assay on SN12C renal, in the assay on SK-MEL-28 melanoma and in the assay with T-47D breast was above 100 µM throughout. In addition, the TGI is above 100 µM with M14 melanoma and above 45.7 µM with MOLT-4 leukemia.

Take `COCCn1c(Nc2ccc(C(=O)NO)cc2)nc2ccccc21`: the GI50 was 1.37 µM in the assay on CAKI-1 renal; 0.846 µM in the assay on RXF 393 renal; 3.19 µM in the assay on TK-10 renal; 7.28 µM in the assay on SN12C renal; 4.94 µM with SK-MEL-28 melanoma; 3.03 µM in the assay with T-47D breast. Further, the GI50 with M14 melanoma was 3.49 µM; in the assay on MOLT-4 leukemia, 3.86 µM. Further, the TGI was 6.24 µM in the assay with CAKI-1 renal; 3.91 µM in the assay on RXF 393 renal; 44.6 µM in the assay with TK-10 renal; 47.4 µM with SN12C renal; 21 µM with SK-MEL-28 melanoma; above 100 µM in the assay with T-47D breast. For the same compound, the TGI is 14.9 µM in the assay on M14 melanoma and above 100 µM in the assay on MOLT-4 leukemia.

The values above are taken from PubChem BioAssay (NCI).
